Reference: US7745411B2, “Methods for promoting erythropoiesis” (University of Southern California, priority 1998, dated 2010)
“Also recorded” adds a separate entry of the source.

Assay: Unspecified test of effectiveness of AII fragments
Conditions: test not specified

Substance | effectiveness (tested, effective or not)
Tyr-Ile-His-Pro-Phe (YIHPF; printed: Tyr-Ile-His-Pro-Phe) [AII(4-8)] | not to be effective; also recorded: ineffective in repeated tests
His-Pro-Phe (HPF) [AII(6-8)] | not to be effective
